Results from US20040023362A1, “Degradation of polycyclic aromatic hydrocarbons by microorganisms” (priority 2000, published 2004).
Values after ≈ are worked out from the molar mass of the structure shown.

Assays:
VUN 110,013 = format: cell-based, Burkholderia sp.; settings: substrate 50 mg l^−1 (or vapor phase), sole carbon source
Protocol: (§1) Gram staining and biochemical tests for bacterial identification were performed according to Collin et al. (1989) following growth in nutrient broth or nutrient agar. […] Compounds tested were added to BSM as a sole carbon and energy source at 50 mg l^−1, and volatile compounds were supplied to the culture in the vapour phase. […] The cells were collected and washed in BSM and the resuspended cells were inoculated into BSM containing different carbon sources. Inoculated BSM without an added carbon source and uninoculated BSM plus carbon source were used as controls. Inocula for the PAH degradation tests were transferred directly from parent cultures, but inocula for other carbon sources were washed prior to inoculation.

VUN 110,011 = assay: Growth of PAH-degrading bacteria on a variety of carbon sources; format: cell-based, Pseudomonas fluorescens; settings: substrate 50 mg l^−1 (or vapor phase), sole carbon source
Protocol: as §1

VUN 110,010 = assay: as above; format: cell-based, Stenotrophomonas maltophilia; settings: substrate 50 mg l^−1 (or vapor phase), sole carbon source
Protocol: as §1

VUN 110,012 = assay: as above; format: cell-based, Stenotrophomonas maltophilia; settings: substrate 50 mg l^−1 (or vapor phase), sole carbon source
Protocol: as §1

[1] = system: strains VUN 10,010, VUN 10,011 and VUN 10,012; assay: Growth of all the strains on compounds as sole carbon and energy source; format: cell-based; settings: supplied at 50 mg l^−1
Protocol: as §1

[2] = system: S. maltophilia VUN 10,010; assay: Degradation of single high molecular weight PAHs by high initial populations of VUN 10,010 with surfactant; format: cell-based, Stenotrophomonas maltophilia
Protocol: […] Incubations contained a single PAH in BSM at 30° C. The PAH remaining was calculated as a percentage relative to the PAH recovered from the […]. Averages for the test cultures are from triplicate experiments.
Tergitol NP-10 (5 and 10 g l^−1) was added to BSM broths each containing a single high molecular weight PAH.

[3] = PAH solubilization by surfactants (apparent solubility, MSR, Km)
Protocol: PAHs (approximately 1 g l^−1) were added to a 10 ml solution of BSM plus surfactant in a 30 ml glass reaction vial, which was sealed with an aluminium cap fitted with a septum. Surfactant concentrations corresponded to levels above, below, and at the CMC, and replicates were set up to allow sampling in duplicate at different time intervals up to 72 h. Incubation was performed at 30° C. and 175 rpm. The entire vial contents was collected by syringe and expressed through a preconditioned membrane filter (0.22 μm, Sartorius AG, Germany) to remove solid-phase crystalline PAH while allowing solubilized PAH in the aqueous phase and micellar pseudophase to pass into sterile vials. The filter was preconditioned by purging the filter with a few mls of sample solution to allow sorption saturation of the internal surfaces of the syringe, filter and needle. The filtrates were extracted with dichloromethane (DCM), and the concentration of solubilized PAH was determined by GC-FID as described below.
The effectiveness of a particular surfactant in solubilizing a given PAH can be assessed by determining the molar solubilization ratio (MSR) and micelle/water partition coefficient (Km). In our study, the concentrations of added PAHs were well in excess of aqueous saturation concentrations; therefore the MSR value of each compound can be obtained from the slope of the curve generated from a plot of PAH concentration versus surfactant concentration for surfactant concentrations above CMC (Edwards et al, 1991).
Km values can be determined from the measured MSR values according to the following equation (Edwards et al, 1991): [formula]
^SPAH, CMC is the apparent solubility of the PAH (mol l^−1) at surfactant CMC. VW is the molar volume of water at 30° C. ie. 0.018015 l mol^−1(Rogers and Mayhew, 1981).

[4] = system: S. maltophilia VUN 10,010; assay: Degradation of a PAH mixture by VUN 10,010 with surfactant, low initial cell population; format: cell-based, Stenotrophomonas maltophilia; settings: for Maximum Specific Degradation Rate: — = not appreciable
Protocol: The incubations were conducted in BSM at 30° C., using low initial cell populations. The PAH remaining was calculated as a percentage relative to the PAH recovered from the uninoculated control. Averages for the test cultures are from triplicate experiments.
A low initial cell population of around 9×10^3 cells ml^−1 was used.

[5] = Tergitol NP-10 5 g l^−1, Single PAH
[6] = Tergitol NP-10 10 g l^−1, Single PAH
[7] = Tergitol NP-10 5 g l^−1, Mixed PAH

Row | Molecule | Growth (VUN 110,013) | Growth (VUN 110,011) | Growth (VUN 110,010) | Growth (VUN 110,012) | growth on compound as the sole carbon and energy source [1] | further results
1 | Oc1c(Cl)c(Cl)cc(Cl)c1Cl [2,3,5,6-tetrachloro-phenol] | + | + | + | + |  | 
2 | Oc1cc(Cl)c(Cl)cc1Cl [2,4,5-trichloro-phenol] | + | + | + | + |  | 
3 | Oc1cc(Cl)ccc1Cl [2,5-dichlorophenol] | + | + | + | + | grew | 
4 | Oc1ccc(Cl)cc1 [4-chlorophenol] | + | − | + | + | grew | 
5 | O=[N+]([O-])c1ccc(O)cc1 [4-nitrophenol] | − | − | − | − |  | 
6 | c1ccccc1 [Benzene] | + | + | + | + | grew | 
7 | O=C(O)c1ccccc1 [Benzoic acid] | + | + | + | + | grew | 
8 | Oc1ccccc1O [Catechol] | + | + | + | + | grew | 
9 | O=C(O)C=Cc1ccccc1 [Cinnamic acid] | − | − | + | − |  | 
10 | c1cc2ccc3ccc4ccc5ccc6ccc1c1c2c3c4c5c61 [Coronene, coronene] |  |  |  |  |  | Maximum Specific Degradation Rate ([2]; Brij 35 5 g l^−1, Single PAH): 0.79 mg PAH degraded mg^−1 protein day^−1; percentage change in maximum specific degradation rate due to surfactant addition ([2]; Brij 35 5 g l^−1, Single PAH): +5%; Maximum Specific Degradation Rate ([2]; Brij 35 10 g l^−1, Single PAH): 1.19 mg PAH degraded mg^−1 protein day^−1; percentage change in maximum specific degradation rate due to surfactant addition ([2]; Brij 35 10 g l^−1, Single PAH): +59%; Maximum Specific Degradation Rate ([2]; No Surfactant, Single PAH): 0.75 mg PAH degraded mg^−1 protein day^−1; PAH degradation rate in the presence of surfactants ([2]; Tergitol NP-10 5 and 10 g l^−1, high initial cell population): did not show improved PAH degradation rate; Maximum Specific Degradation Rate [2, 5]: 0.98 mg PAH degraded mg^−1 protein day^−1; percentage change in maximum specific degradation rate due to surfactant addition [2, 5]: +31%; Maximum Specific Degradation Rate [2, 6]: 0.79 mg PAH degraded mg^−1 protein day^−1; percentage change in maximum specific degradation rate due to surfactant addition [2, 6]: +5%
11 | CC(C)(CO)[C@@H](O)C(=O)NCCC(=O)O [D-panthothenic acid] | + | + | + | + |  | 
12 | c1ccc2c(c1)-c1cccc3cccc-2c13 [Fluoranthene, fluoranthene] |  |  |  |  |  | solubility ([3]; 30° C.): ~1.37 µM (≈ 0.277 µg/mL); solubility ([3]; 30 °C, aqueous with cosolvent or surfactant or cyclodextrin, thermodynamic from solid): 730 to 810 µM (≈ 148 to 164 µg/mL); Maximum Specific Degradation Rate ([2]; Brij 35 5 g l^−1, Single PAH): 3.71 mg PAH degraded mg^−1 protein day^−1; percentage change in maximum specific degradation rate due to surfactant addition ([2]; Brij 35 5 g l^−1, Single PAH): +28%; Maximum Specific Degradation Rate ([2]; Brij 35 10 g l^−1, Single PAH): 12.11 mg PAH degraded mg^−1 protein day^−1; percentage change in maximum specific degradation rate due to surfactant addition ([2]; Brij 35 10 g l^−1, Single PAH): +318%; Maximum Specific Degradation Rate ([2]; No Surfactant, Single PAH): 2.90 mg PAH degraded mg^−1 protein day^−1; Maximum Specific Degradation Rate [2, 5]: 4.54 mg PAH degraded mg^−1 protein day^−1; percentage change in maximum specific degradation rate due to surfactant addition [2, 5]: +57%; Maximum Specific Degradation Rate [2, 6]: 4.59 mg PAH degraded mg^−1 protein day^−1; percentage change in maximum specific degradation rate due to surfactant addition [2, 6]: +58%; Maximum Specific Degradation Rate ([4]; No Surfactant, Mixed PAH): 1.02 mg PAH degraded mg^−1 protein day^−1; percentage change in maximum specific degradation rate due to surfactant addition [4, 7]: +9%; Maximum Specific Degradation Rate [4, 7]: 1.11 mg PAH degraded mg^−1 protein day^−1
13 | O=C(O)c1cc(O)ccc1O [Gentisic acid] | + | + | + | + |  | 
14 | O=C(O)/C=C\C(=O)O [Maleic acid] | + | + | + | + |  | 
15 | O=[N+]([O-])c1ccccc1 [Nitrobenzene] | − | − | + | + |  | 
16 | Oc1c(Cl)c(Cl)c(Cl)c(Cl)c1Cl [Pentachlorophenol] | − | − | + | + |  | 
17 | O=C(O)c1ccccc1C(=O)O [Phthalic acid] | + | + | + | + | grew | 
18 | O=C(O)c1ccc(O)c(O)c1 [Protocatechuic acid] | + | + | + | + | grew | 
19 | CC(=O)C(=O)O [Pyruvate] | + | + | + | + |  | 
20 | O=C(O)c1ccccc1O [Salicylic acid] | + | + | + | + | grew | 
21 | O=C(O)CCC(=O)O [Succinic acid] | + | + | + | + | grew | 
22 | Cc1ccccc1 [Toluene] | − | + | + | + | grew | 
23 | CCCCCCCCCCCCCCCC [n-hexadecane] | + | + | + | + | grew | 
24 | CCCCCCCC [n-octane] | + | + | + | + | grew | 
25 | O=C(O)c1ccc(O)cc1 [p-hydroxybenzoic acid] | + | + | + | + | grew | 
26 | Tween 20 | + | + | + | + | grew | 
27 | Tween 40 |  |  |  |  | grew | 
28 | Tween 60 |  |  |  |  | grew | 
29 | Tween 80 | + | + | + | + | grew | 
